# Measured values published in publication PMC9112895, “Selective Inhibition of Plasmodium falciparum ATPase 6 by Artemisinins and Identification of New Classes of Inhibitors after Expression in Yeast” (Antimicrobial Agents and Chemotherapy, 2022).
# Assays:
# [1] = target: T1, A623E/S769N PfATP6 (Plasmodium falciparum, UniProt Q08853, A623E/S769N); test: Yeast whole-cell assay, PfATP6 A623E/S769N double mutant; type: cell-based; conditions: read-out: IC50 (mean ± SD)
# T1 construct: expressed in transfected cells; host or cells: Saccharomyces cerevisiae K667-derived strain
# T1 sequence (Q08853 1-1228 A623E/S769N): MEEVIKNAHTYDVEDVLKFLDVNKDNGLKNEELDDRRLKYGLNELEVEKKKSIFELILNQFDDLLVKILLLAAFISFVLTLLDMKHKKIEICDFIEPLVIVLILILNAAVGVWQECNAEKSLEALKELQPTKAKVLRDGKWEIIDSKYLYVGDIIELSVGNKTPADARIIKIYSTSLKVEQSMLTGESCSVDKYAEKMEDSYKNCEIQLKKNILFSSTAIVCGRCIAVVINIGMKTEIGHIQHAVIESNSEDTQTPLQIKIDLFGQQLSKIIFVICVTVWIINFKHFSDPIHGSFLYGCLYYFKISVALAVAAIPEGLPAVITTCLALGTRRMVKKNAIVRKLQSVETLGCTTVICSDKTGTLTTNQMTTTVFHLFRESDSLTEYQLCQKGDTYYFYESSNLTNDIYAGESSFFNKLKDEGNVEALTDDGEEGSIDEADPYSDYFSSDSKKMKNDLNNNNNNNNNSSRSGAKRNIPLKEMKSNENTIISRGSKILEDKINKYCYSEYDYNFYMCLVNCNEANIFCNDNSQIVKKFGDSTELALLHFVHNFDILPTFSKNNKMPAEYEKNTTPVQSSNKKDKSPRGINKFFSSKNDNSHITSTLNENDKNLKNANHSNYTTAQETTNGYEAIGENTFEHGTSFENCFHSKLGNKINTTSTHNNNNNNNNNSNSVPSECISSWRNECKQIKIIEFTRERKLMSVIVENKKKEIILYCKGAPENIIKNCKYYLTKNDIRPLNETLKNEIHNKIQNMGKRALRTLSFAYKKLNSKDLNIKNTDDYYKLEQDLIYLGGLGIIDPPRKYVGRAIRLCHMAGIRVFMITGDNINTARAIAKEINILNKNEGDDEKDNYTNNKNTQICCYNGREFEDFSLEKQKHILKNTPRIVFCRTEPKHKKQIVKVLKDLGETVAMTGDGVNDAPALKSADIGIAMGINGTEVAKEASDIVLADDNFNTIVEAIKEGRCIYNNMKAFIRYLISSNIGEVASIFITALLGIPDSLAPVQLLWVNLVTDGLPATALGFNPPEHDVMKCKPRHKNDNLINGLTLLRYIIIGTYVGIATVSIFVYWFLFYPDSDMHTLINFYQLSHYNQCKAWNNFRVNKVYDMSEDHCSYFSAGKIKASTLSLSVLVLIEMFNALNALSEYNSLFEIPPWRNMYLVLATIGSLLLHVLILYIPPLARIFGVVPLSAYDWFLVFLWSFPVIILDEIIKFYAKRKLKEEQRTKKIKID
# Description: Yeast transformations were performed using the method described by Gietz and Schiestl ([48]), and transformants were selected by an uracil auxotrophic marker. Transformations were confirmed by colony PCR. Both K667 and K667Δpdr5::HIS were transformed with the following plasmids: pUGpd plasmid as a vector-only control (derived from pRS316 [49]); br434 plasmid (derived from pRS316 [50]) containing the SERCA1a coding region from rabbit skeletal fast-twitch muscle (pbr434-SERCA1a); and pUGpd containing the yeast-optimized coding region of PfATP6 from Plasmodium falciparum (pUGpd-PfATP6). Site-directed mutagenesis was performed on the SERCA1a coding region to produce the mutation E255L in the protein. Mutations were also introduced into the PfATP6 coding region to produce mutations L263E, A623E, and S769N and the double mutation A623E/S769N ([13]).
# The screening assay used here was developed from the protocol used by Pulcini et al. ([13]). […] The optimal calcium concentration was periodically monitored and, if necessary, adjusted using a calcium concentration range of 10 to 30 mM. […] The yeast growth was estimated from the absorbance at 620 nm in a Tecan plate reader. […] The data collected were analyzed using GraphPad Prism v9.0 (GraphPad software, San Diego, CA, U.S.A).
# [2] = target: SERCA1a (Oryctolagus cuniculus, UniProt P04191); test: In vitro activity assay, SERCA1a (membrane-bound); type: biochemical, rabbit; design: containing the SERCA1a coding region from rabbit skeletal fast-twitch muscle; expressed in transfected cells; conditions: parallel in vitro activity assay, 100 µM (Fig. S1D)
# Description: (§1) Activity assays were performed as described by Longland et al. ([55]) and LeBel et al. ([56]), except that the reaction mixtures were incubated at 30°C instead of 37°C. […] Then, 5.8 mM ATP was added and incubated for an additional 15 min at 30°C. The reaction was stopped with 0.5 mL 6.5% trichloroacetic acid (TCA) on ice, and the mixture was centrifuged at 4°C for 10 min at 16,000 × g; 0.5 mL of the supernatant was added to 1.5 mL of copper acetate buffer (0.25% copper sulfate pentahydrate, 4.6% sodium acetate trihydrate, dissolved in 2 M acetic acid [pH 4.0]) and mixed by vortex-mixing before the addition of 0.25 mL of 5% ammonium molybdate, followed by 0.25 mL METOL buffer (2% p-methyl-aminophenol sulfate, 5% sodium sulfite). Samples were incubated for 10 min, and the absorbance was measured at 870 nm in a spectrophotometer. The Pi standard was 0.4387 g/100 mL KH2PO4.
# [3] = target: PfATP6 (Plasmodium falciparum, UniProt Q08853); test: In vitro activity assay, PfATP6 (membrane-bound); type: biochemical; design: pUGpd containing the yeast-optimized coding region of PfATP6 from Plasmodium falciparum; expressed in transfected cells; conditions: 1 μM free calcium
# Description: as §1
# PfATP6, sequence (Q08853 whole entry): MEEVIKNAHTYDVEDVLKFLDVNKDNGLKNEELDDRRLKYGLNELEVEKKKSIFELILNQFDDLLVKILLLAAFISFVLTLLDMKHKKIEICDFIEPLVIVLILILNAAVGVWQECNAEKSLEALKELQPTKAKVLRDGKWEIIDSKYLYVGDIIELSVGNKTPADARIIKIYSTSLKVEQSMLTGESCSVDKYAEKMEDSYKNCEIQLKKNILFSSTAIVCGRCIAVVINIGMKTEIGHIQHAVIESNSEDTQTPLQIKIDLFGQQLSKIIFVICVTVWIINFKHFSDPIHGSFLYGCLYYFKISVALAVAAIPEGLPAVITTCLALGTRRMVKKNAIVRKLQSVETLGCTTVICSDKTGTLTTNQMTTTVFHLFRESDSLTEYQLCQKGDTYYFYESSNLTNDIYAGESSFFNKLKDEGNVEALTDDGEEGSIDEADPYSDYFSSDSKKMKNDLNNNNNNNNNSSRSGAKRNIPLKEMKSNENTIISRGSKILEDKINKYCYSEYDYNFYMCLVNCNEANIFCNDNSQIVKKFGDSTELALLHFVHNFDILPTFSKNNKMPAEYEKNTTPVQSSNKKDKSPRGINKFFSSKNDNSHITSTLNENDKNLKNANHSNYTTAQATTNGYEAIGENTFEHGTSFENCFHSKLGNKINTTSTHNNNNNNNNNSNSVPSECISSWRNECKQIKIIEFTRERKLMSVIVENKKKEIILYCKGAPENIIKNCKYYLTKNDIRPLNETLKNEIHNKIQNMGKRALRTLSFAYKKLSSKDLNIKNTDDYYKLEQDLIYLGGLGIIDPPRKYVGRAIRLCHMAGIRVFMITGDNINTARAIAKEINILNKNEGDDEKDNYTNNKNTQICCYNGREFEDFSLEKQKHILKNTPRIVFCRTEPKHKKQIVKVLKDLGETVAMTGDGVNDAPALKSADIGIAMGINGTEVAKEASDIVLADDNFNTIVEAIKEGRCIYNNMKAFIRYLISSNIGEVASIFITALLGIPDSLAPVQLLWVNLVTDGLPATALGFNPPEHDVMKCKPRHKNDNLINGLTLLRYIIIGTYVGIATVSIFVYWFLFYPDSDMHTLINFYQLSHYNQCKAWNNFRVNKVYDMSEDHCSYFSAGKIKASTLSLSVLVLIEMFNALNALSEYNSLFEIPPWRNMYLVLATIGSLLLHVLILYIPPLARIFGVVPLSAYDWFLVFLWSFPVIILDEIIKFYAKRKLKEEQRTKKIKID
# SERCA1a, sequence (P04191 other isoform, or with tags, fused parts or gaps): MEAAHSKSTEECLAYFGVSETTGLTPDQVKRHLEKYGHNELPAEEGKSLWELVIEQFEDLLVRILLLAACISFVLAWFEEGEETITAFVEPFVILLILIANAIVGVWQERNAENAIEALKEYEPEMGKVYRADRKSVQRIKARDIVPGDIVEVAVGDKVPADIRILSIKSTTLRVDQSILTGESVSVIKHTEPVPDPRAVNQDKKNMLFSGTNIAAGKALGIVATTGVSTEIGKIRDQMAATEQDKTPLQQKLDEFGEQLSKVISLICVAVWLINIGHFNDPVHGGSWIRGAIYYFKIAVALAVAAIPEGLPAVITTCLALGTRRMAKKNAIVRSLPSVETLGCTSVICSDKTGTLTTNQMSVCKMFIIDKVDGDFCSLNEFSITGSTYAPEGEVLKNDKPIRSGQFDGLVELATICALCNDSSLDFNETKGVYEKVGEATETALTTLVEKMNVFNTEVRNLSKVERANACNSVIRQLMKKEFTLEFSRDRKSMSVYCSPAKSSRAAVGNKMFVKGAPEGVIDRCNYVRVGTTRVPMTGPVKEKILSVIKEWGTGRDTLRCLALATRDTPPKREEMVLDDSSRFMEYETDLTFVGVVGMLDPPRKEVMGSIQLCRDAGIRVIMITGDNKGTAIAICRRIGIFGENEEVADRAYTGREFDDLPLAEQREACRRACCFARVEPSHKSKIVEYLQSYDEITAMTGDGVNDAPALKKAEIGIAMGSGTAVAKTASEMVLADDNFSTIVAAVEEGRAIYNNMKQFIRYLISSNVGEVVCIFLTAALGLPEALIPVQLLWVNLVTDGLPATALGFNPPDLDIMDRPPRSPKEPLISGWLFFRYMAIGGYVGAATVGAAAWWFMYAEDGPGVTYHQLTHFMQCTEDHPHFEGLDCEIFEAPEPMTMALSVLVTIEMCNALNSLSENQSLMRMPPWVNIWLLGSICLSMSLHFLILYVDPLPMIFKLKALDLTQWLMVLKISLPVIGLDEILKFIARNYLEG
compound,measurement,setting,value
"CC(=O)C1=C(O)[C@@H]2[C@H]3c4c[nH]c5cccc(c45)C[C@H]3C(C)(C)N2C1=O [CPA, cyclopiazonic acid]",IC50,[1],6.61 µM
same,inhibition of purified SERCA1a activity,[2],apparent inhibition
same,in vitro activity of PfATP6 versus no drug control,[3],No significant
